Measurements as given in article PMC4840272 (Neoplasia (New York, N.Y.), 2016).
Values joined by “and” are separate entries in the source; they are usually repeats but may differ in a detail not shown here. Equal entries are not always repeated. Where two headings read alike, the source gives them in different places.

Tests used:
[1] = tissue distribution in SD rats; assay type: in vivo; settings: 30 minutes after administration, 10 mg/kg, n = 6
CCRF-CEM = assay: cytotoxicity in multiple drug-resistant and cisplatin-resistant cells; assay type: cell-based; settings: Homo sapiens
CL1-5 cells = assay: alamarBlue in vitro cytotoxicity assay; assay type: cell-based, human
CL141T cells = assay: cells; assay type: cell-based, human
H1975 cells = assay: cells; assay type: cell-based, human
CL100 cells = assay: cells; assay type: cell-based, human
MES-SA = assay: cytotoxicity in multiple drug-resistant and cisplatin-resistant cells; assay type: cell-based
H460 cells [2] = assay: modified comet assay of DNA ICLs; assay type: cell-based, human; settings: 1, 5, and 10 μM, 2 hours
stability in rat plasma = assay type: in vitro ADME
CCRF/VBL = assay: cytotoxicity in multiple drug-resistant and cisplatin-resistant cells; assay type: cell-based
H460 xenograft = H460 xenograft in nude mice; assay type: in vivo; settings: for body weight loss: H460 xenograft mice; for body weight loss / H460 xenograft tumor size suppressed/reduced to: BO-1978 40 mg/kg QDx5, cisplatin 6 mg/kg every 4 days x3
H1650 cells = assay: cells; assay type: cell-based, human
A549 cells = assay: cells; assay type: cell-based, human
KB = assay: cytotoxicity in multiple drug-resistant and cisplatin-resistant cells; assay type: cell-based; settings: Homo sapiens
pEGFP-N1 plasmid DNA = assay: alkaline gel shift assay of DNA cross-linking; assay type: biochemical; settings: 0.125 to 2 μM, 2 hours, 37°C
H1650-Luc cells = assay: orthotopic lung tumor model, IVIS; assay type: in vivo, nude mice; settings: BO-1978 40 mg/kg, gefitinib 10 mg/kg, daily for 5 consecutive days
[3] = stability in culture medium; assay type: physicochemical
[4] = whole-blood pharmacokinetics in SD rats; assay type: in vivo
[5] = complete blood count and blood chemistry test in ICR mice; assay type: in vivo; settings: 40 mg/kg i.v.
γH2AX, DNA-PK, and Rad51 = assay: Western blot of DNA damage response; assay type: cell-based, human; settings: H460 cells, 1 to 4 μM, 24 hours
PC9/gef B4 xenograft = PC9/gef B4 xenograft in nude mice; assay type: in vivo; settings: i.v., BO-1978 40 mg/kg, gefitinib 10 mg/kg, daily for 5 consecutive days
MES-SA/dx5 = assay: cytotoxicity in multiple drug-resistant and cisplatin-resistant cells; assay type: cell-based; settings: for resistance factor: MES-SA/dx5 vs MES-SA
H1299 cells = assay: cells; assay type: cell-based, human
KB/vin10 = assay: cytotoxicity in multiple drug-resistant and cisplatin-resistant cells; assay type: cell-based
CL97 cells = assay: cells; assay type: cell-based, human
PC9 cells = assay: cells; assay type: cell-based, human
H460 cells [6] = assay: cell cycle analysis by flow cytometry; assay type: cell-based, human; settings: 1 to 4 μM, 24 to 72 hours
11 NSCLC cell lines = assay: cytotoxicity against batch of 11 NSCLC cell lines; assay type: cell-based; settings: Homo sapiens, read-out: IC50 values against NSCLC cells (range)
caspases 3 and 7 = assay: Western blot of apoptotic executor proteins; assay type: cell-based, human; settings: H460 cells
H460 cells [7] = assay: cells; assay type: cell-based, human
PC9/gef B4 cells = assay: cells; assay type: cell-based, human; settings: for resistance factor of PC9/gef B4 to PC9 cells: IC50 ratio, number in brackets
[8] = histopathological examination of major organs in ICR mice; assay type: in vivo; settings: 40 mg/kg i.v., days 2 and 14, histopathology and blood tests
topo II = topo II activity assay with nuclear extracts of treated H460 cells; assay type: cell-based, human; settings: H460 cells treated 72 hours, nuclear extract, plasmid relaxation
H1975 xenograft = H1975 xenograft in nude mice; assay type: in vivo; settings: i.v., BO-1978 40 mg/kg, gefitinib 10 mg/kg, daily for 5 consecutive days
NTUB1/P = assay: cytotoxicity in multiple drug-resistant and cisplatin-resistant cells; assay type: cell-based; settings: for resistance factor: NTUB1/P vs NTUB1
PC9 xenograft = PC9 xenograft in nude mice; assay type: in vivo; settings: i.v., BO-1978 40 mg/kg, gefitinib 10 mg/kg, daily for 5 consecutive days
NTUB1 = assay: cytotoxicity in multiple drug-resistant and cisplatin-resistant cells; assay type: cell-based
H1650 xenograft = H1650 xenograft in nude mice; assay type: in vivo; settings: i.v., BO-1978 40 mg/kg, gefitinib 10 mg/kg, daily for 5 consecutive days
[9] = acute toxicity LD50 in ICR mice; settings: male, mouse, in vivo
topo I = topo I (Homo sapiens, UniProt P11387); assay: topo I activity assay with nuclear extracts of treated H460 cells; assay type: cell-based; settings: H460 cells treated 72 hours, nuclear extract, plasmid relaxation
Sequence of topo I (P11387 whole entry): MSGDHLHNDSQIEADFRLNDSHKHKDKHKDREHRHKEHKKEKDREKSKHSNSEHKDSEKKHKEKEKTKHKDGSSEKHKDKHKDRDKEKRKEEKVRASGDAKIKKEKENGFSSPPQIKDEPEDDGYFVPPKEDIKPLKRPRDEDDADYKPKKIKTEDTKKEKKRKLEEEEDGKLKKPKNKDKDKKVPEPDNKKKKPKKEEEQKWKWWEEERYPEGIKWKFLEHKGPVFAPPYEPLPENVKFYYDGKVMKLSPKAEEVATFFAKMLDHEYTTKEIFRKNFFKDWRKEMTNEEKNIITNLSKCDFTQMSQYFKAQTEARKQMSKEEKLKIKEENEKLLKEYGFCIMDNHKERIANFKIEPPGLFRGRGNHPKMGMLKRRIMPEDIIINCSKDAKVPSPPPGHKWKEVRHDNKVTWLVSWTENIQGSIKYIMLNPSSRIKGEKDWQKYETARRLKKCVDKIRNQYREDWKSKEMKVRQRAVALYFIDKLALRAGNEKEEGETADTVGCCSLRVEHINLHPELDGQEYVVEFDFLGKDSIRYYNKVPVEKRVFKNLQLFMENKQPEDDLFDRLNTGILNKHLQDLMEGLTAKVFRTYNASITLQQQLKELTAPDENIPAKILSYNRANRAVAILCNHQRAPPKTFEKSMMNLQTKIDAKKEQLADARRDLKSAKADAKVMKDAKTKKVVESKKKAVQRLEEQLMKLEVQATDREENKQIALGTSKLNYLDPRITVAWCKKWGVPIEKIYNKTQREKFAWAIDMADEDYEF

[10] = male, SD, rat, whole blood, iv, 10 mg/kg

CCc1c(CO)c(CO)c2n1Cc1c(c3ccccc3n1C)C2 [BO-1978, [3-ethyl-6-methyl-6,11-dihydro-5H-indolizino[6,7-b]indole-1,2-diyl]dimethanol]
concentration in Blood [1]: 1.59 ± 0.48 μg/ml or μg/g
concentration in Brain [1]: 3.97 ± 0.96 μg/ml or μg/g
concentration in Heart [1]: 1.79 ± 0.72 μg/ml or μg/g
concentration in Kidney [1]: 2.19 ± 0.12 μg/ml or μg/g
concentration in Liver [1]: 10.71 ± 1.96 μg/ml or μg/g
concentration in Lung [1]: 3.13 ± 1.44 μg/ml or μg/g
concentration in Spleen [1]: 0.48 ± 0.08 μg/ml or μg/g
IC50 (CCRF-CEM): 460 ± 120 nM
IC50 (CL1-5 cells; Homo sapiens, CL1-5, 72 h): 1470 ± 530 nM
IC50 (CL141T cells; Homo sapiens, 72 h): 1320 ± 470 nM
IC50 (H1975 cells; Homo sapiens, NCI-H1975, 72 h): 2340 ± 180 nM
IC50 (CL100 cells; Homo sapiens, 72 h): 1510 ± 300 nM
IC50 (MES-SA; Homo sapiens): 770 ± 80 nM
tail moment in X-ray irradiated H460 cells (DNA ICLs) (H460 cells [2]): dose-dependently induced shortened tail moments
half-life (stability in rat plasma): 89.4 ± 5.62 h
IC50 (CCRF/VBL): 410 ± 30 nM
body weight loss (H460 xenograft): negligible
H460 xenograft tumor size suppressed/reduced to (H460 xenograft; i.v.): approximately 65%
maximal tolerant dose (H460 xenograft; nude mice, i.v., given for 5 consecutive days (QDx5)): 40 mg/kg
IC50 (H1650 cells; Homo sapiens, NCI-H1650, 72 h): 3500 ± 100 nM
IC50 (A549 cells; Homo sapiens, A549, 72 h): 3150 ± 1200 nM
IC50 (KB): 1960 ± 390 nM
formation of DNA ICLs in plasmid DNA (pEGFP-N1 plasmid DNA): formed DNA ICLs
orthotopic growth of H1650-Luc cells (H1650-Luc cells): effectively suppressed
half-life [3]: 36.8 ± 2.19 h
systemic clearance as share of cardiac output of rats ([4]; cardiac output approximately 296 ml/min per kg): approximately 19%
systemic clearance ([4]; male SD rats, single i.v. 10 mg/kg): 56.24 ± 14.90 ml/min per kg
AUC(0-t) [4, 10]: 3140 ng·h/mL
C0 [4, 10]: 8630 ng/mL and 27.8 µM
MRT [4, 10]: 0.456 h
half-life [4, 10]: 0.392 ± 0.118 h
ALP ([5]; 14 Days): 233.50 ± 36.74 U/l
ALT ([5]; 14 Days): 44.87 ± 19.72 U/l
AST ([5]; 14 Days): 86.14 ± 25.25 U/l
BASO ([5]; 14 Days): 0.09 ± 0.03 10^9/l
BUN ([5]; 14 Days): 23.95 ± 1.71 mg/dL
CRE ([5]; 14 Days): 0.17 ± 0.05 mg/dL
EOS ([5]; 14 Days): 0.12 ± 0.13 10^9/l
HCT ([5]; 14 Days): 44.02 ± 1.18%
HGB ([5]; 14 Days): 12.78 ± 0.42 g/dL
LYM ([5]; 14 Days): 2.86 ± 0.88 10^9/l
MCH ([5]; 14 Days): 16.38 ± 0.52 pg
MCHC ([5]; 14 Days): 29.05 ± 0.46 g/dL
MCV ([5]; 14 Days): 56.40 ± 1.69 fL
MONO ([5]; 14 Days): 0.11 ± 0.09 10^9/l
NEU ([5]; 14 Days): 0.82 ± 0.47 10^9/l
PLT ([5]; 14 Days): 958.00 ± 178.31 10^9/l
RBC ([5]; 14 Days): 7.81 ± 0.33 10^12/l
WBC ([5]; 14 Days): 4.00 ± 0.97 10^9/l
ALP ([5]; 48 Hours): 297.50 ± 72.11 U/l
ALT ([5]; 48 Hours): 156.25 ± 236.88 U/l
AST ([5]; 48 Hours): 220.27 ± 153.45 U/l
BASO ([5]; 48 Hours): 0.06 ± 0.03 10^9/l
BUN ([5]; 48 Hours): 19.48 ± 2.03 mg/dL
CRE ([5]; 48 Hours): 0.18 ± 0.15 mg/dL
EOS ([5]; 48 Hours): 0.05 ± 0.04 10^9/l
HCT ([5]; 48 Hours): 41.13 ± 1.95%
HGB ([5]; 48 Hours): 11.96 ± 0.53 g/dL
LYM ([5]; 48 Hours): 1.83 ± 1.17 10^9/l
MCH ([5]; 48 Hours): 16.75 ± 0.45 pg
MCHC ([5]; 48 Hours): 29.07 ± 0.40 g/dL
MCV ([5]; 48 Hours): 57.61 ± 1.27 fL
MONO ([5]; 48 Hours): 0.05 ± 0.04 10^9/l
NEU ([5]; 48 Hours): 0.45 ± 0.21 10^9/l
PLT ([5]; 48 Hours): 786.10 ± 90.60 10^9/l
RBC ([5]; 48 Hours): 7.14 ± 0.38 10^12/l
WBC ([5]; 48 Hours): 2.43 ± 1.19 10^9/l
expression of γH2AX, DNA-PK, and Rad51 (γH2AX, DNA-PK, and Rad51): dose-dependently increased the expression levels
suppression of xenograft tumor growth (PC9/gef B4 xenograft): 73%
IC50 (MES-SA/dx5; Homo sapiens, MES-SA/Dx5): 470 ± 120 nM
resistance factor (MES-SA/dx5): 0.61 x
IC50 (H1299 cells; Homo sapiens, NCI-H1299, 72 h): 3020 ± 650 nM
IC50 (KB/vin10; Homo sapiens, KB-VIN10): 1560 ± 510 nM
resistance factor (KB/vin10; KB/vin10 vs KB): 0.79 x
IC50 (CL97 cells; Homo sapiens, CL97, 72 h): 1250 ± 180 nM
IC50 (PC9 cells; Homo sapiens, PC-9, 72 h): 1410 ± 370 nM
cell cycle interference (H460 cells [6]): S phase delay at 24 hours and then G2 arrest at 72 hours
IC50 (11 NSCLC cell lines): 1060 to 3500 nM
cleavage of caspases 3 and 7 (caspases 3 and 7): dose- and time-dependently induced cleavage of caspases 3 and 7
IC50 (H460 cells [7]; Homo sapiens, NCI-H460, 72 h): 1060 ± 110 nM
IC50 (PC9/gef B4 cells; Homo sapiens, 72 h): 1580 ± 330 nM
resistance factor of PC9/gef B4 to PC9 cells (PC9/gef B4 cells): 1.12
toxic effects in the major organs [8]: did not cause apparent toxic effects in the major organs except for slight and recoverable liver damage
concentration at which topo II activity was significantly inhibited (topo II): greater than 0.5 μM
suppression of xenograft tumor growth (H1975 xenograft): 26%
IC50 (NTUB1/P; NTUB1): 1920 ± 390 nM
resistance factor (NTUB1/P): 1.68 x
suppression of xenograft tumor growth (PC9 xenograft): 55%
IC50 (NTUB1): 1140 ± 320 nM
suppression of xenograft tumor growth (H1650 xenograft): 30%
LD50 [9]: 93.7 mg/kg
concentration at which topo I activity was significantly inhibited (topo I): greater than 0.5 μM

N.N.[Cl][Pt][Cl] [Cisplatin]
IC50 (CL1-5 cells; CL1-5, 72 hours, alamarBlue): 2820 ± 280 nM
IC50 (CL141T cells; 72 hours, alamarBlue): 2800 ± 360 nM
IC50 (H1975 cells; H1975, 72 hours, alamarBlue): 16100 ± 4030 nM
IC50 (CL100 cells; CL100, 72 hours, alamarBlue): 6210 ± 3640 nM
IC50 (MES-SA): 1820 ± 660 nM
body weight loss (H460 xenograft): approximately 12%
H460 xenograft tumor size suppressed/reduced to (H460 xenograft; i.v.): 52%
IC50 (H1650 cells; H1650, 72 hours, alamarBlue): 36500 ± 8140 nM
IC50 (A549 cells; A549, 72 hours, alamarBlue): 31100 ± 3030 nM
IC50 (MES-SA/dx5; MES-SA/dx5): 2270 ± 730 nM
resistance factor (MES-SA/dx5): 1.25 x
IC50 (H1299 cells; H1299, 72 hours, alamarBlue): 16500 ± 900 nM
IC50 (CL97 cells; CL97, 72 hours, alamarBlue): 14700 ± 340 nM
IC50 (PC9 cells; PC9, 72 hours, alamarBlue): 16400 ± 3290 nM
IC50 (H460 cells [7]; H460, 72 hours, alamarBlue): 9940 ± 470 nM
resistance factor of PC9/gef B4 to PC9 cells (PC9/gef B4 cells): 2.10
IC50 (PC9/gef B4 cells; PC9/gef B4, 72 hours, alamarBlue): 34300 ± 1620 nM
IC50 (NTUB1/P; NTUB1/P): 62100 ± 15300 nM
resistance factor (NTUB1/P): 20.9 x
IC50 (NTUB1): 2970 ± 1430 nM

COc1cccc2c1C(=O)c1c(O)c3c(c(O)c1C2=O)C[C@@](O)(C(=O)CO)C[C@@H]3O[C@H]1C[C@H](N)[C@H](O)[C@H](C)O1 [Doxorubicin]
IC50 (MES-SA; Homo sapiens): 38 ± 3 nM
IC50 (MES-SA/dx5; Homo sapiens, MES-SA/Dx5): 2300 ± 980 nM
resistance factor (MES-SA/dx5): 60.52 x
